Test [1] concerns the target T1, human recombinant GABAAR containing α5β3γ2 subunits (benzodiazepine site) (Homo sapiens, UniProt P18507+P31644).
T1 construct: expressed in transfected cells; host or cells: mouse L(tk−) cells, dexamethasone-inducible vector pMSGneo
The experiment in a line: In vitro radioligand binding assay (α5-GABAAR Ki). The following applies: inhibition of [3H]Ro15-1788 binding, membranes of L(tk−) cells expressing human α5β3γ2; read-out: α5-GABAAR Ki. In outline:
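Membranes from mouse L(tk^−) cells stably expressing human α5β3γ2 GABAAR incubated 1 h at 4° C with 4 nM [^3H]Ro15-1788 and test compound; nonspecific binding with 1 μM TP003. Filter-bound radioactivity counted; Ki from IC50 by Cheng-Prusoff using measured Kd.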

The target in test [2] is T2, human α5β3γ2 GABAARs in mouse L(tk−) cells (Homo sapiens, UniProt P18507+P31644).
T2 construct: expressed in transfected cells; host or cells: mouse L(tk−) cells, dexamethasone-inducible vector pMSGneo
T2 sequence (P31644 32-462): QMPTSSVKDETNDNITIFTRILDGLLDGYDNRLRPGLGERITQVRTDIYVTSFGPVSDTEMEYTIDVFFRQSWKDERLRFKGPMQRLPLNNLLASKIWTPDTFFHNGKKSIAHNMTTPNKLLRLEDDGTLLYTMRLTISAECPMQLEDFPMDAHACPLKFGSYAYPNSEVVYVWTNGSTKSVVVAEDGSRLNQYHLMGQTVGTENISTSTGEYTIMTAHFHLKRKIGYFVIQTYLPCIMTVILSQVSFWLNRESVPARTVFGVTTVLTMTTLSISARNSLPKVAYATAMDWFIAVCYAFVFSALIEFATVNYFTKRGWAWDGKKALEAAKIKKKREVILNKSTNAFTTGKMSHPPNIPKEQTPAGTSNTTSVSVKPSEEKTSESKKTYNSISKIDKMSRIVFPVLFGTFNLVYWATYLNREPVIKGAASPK
T2 sequence (P28472 26-473 partner): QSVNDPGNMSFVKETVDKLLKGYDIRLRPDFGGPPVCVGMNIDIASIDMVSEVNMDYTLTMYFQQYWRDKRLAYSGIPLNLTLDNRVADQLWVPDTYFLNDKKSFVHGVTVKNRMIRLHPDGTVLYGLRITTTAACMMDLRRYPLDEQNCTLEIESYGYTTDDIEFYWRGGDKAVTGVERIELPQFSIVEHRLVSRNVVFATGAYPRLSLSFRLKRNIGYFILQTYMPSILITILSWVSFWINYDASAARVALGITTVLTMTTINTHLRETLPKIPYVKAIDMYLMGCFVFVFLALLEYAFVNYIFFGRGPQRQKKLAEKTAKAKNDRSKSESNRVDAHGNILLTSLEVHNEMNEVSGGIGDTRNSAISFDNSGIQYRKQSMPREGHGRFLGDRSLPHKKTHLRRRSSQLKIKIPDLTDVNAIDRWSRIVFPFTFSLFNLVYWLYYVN
T2 sequence (P18507 40-475): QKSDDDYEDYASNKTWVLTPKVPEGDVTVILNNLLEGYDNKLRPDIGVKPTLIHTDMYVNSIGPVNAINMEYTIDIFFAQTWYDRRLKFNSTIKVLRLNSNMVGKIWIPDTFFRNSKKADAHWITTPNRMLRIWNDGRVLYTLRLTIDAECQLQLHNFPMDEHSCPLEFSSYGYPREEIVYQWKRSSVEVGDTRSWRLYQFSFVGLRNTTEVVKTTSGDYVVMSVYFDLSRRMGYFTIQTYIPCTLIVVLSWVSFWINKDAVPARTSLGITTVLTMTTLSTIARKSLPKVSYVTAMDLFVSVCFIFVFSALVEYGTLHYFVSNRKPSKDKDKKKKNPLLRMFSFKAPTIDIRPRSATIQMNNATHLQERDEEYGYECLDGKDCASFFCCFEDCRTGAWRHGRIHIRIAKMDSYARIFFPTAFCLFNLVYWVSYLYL
Description: In vitro electrophysiological recording assay (α5-GABAAR relative efficacy), QPatch. The format is cell-based. Particulars: GABA EC10-20. In outline:
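Whole-cell QPatch recordings at 20-22° C, −65 mV holding, in dexamethasone-induced (1 μM, 24 h) L(tk−) cells. Compound pre-applied ≥1 min, then co-applied with GABA EC10-20; percentage change in leak-corrected peak current, taken at ≥100× Ki, normalised to DMCM efficacy; 0.1% DMSO final.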

T1 sequence (P31644 32-462): as the sequence (P31644 32-462) above
T1 sequence (P28472 26-473 partner): as the sequence (P28472 26-473 partner) above
T1 sequence (P18507 40-475): as the sequence (P18507 40-475) above

As for `COc1nc(-c2cnnn2C)ccc1NC(=O)c1c(-c2ccccc2)noc1C` [Example 102, N-(2-Methoxy-6-(1-methyl-1H-1,2,3-triazol-5-yl)pyridin-3-yl)-5-methyl-3-phenyl-isoxazole-4-carboxamide], the Ki in test [1] worked out at 1.5 nM. Moreover, in test [2] (Conc 0.3 μM), the “α5-GABAAR Relative Efficacy (to DMCM), Qpatch” value (“α5-GABAAR Relative Efficacy” for short) is on record as −0.79.
`CNc1cc(-c2ccc(NC(=O)c3c(-c4ccccc4)noc3C)c(OC)n2)ccn1` [Example 103, N-(6-Methoxy-2′-(methylamino)-[2,4′-bipyridin]-5-yl)-5-methyl-3-phenylisoxazole-4-carboxamide]: the Ki in test [1] was 6.6 nM. In addition, in test [2] (Conc 1 μM), the “α5-GABAAR Relative Efficacy” value is −0.78.
As to `COc1nc(-c2ccnnc2)ccc1NC(=O)c1c(-c2ccccc2)noc1C` [Example 104, N-(2-Methoxy-6-(pyridazin-4-yl)pyridin-3-yl)-5-methyl-3-phenylisoxazole-4-carboxamide], the Ki in test [1] worked out at 1.7 nM. Besides, the “α5-GABAAR Relative Efficacy” value in test [2] (Conc 0.3 μM) was −0.68.
On to `COc1nc(-c2cnc3c(c2)OCO3)ccc1NC(=O)c1c(-c2ccccc2)noc1C` [Example 106, N-(6-([1,3] Dioxolo[4,5-b]pyridin-6-yl)-2-methoxypyridin-3-yl)-5-methyl-3-phenylisoxazole-4-carboxamide], for which, in test [1], the Ki stood at 11.4 nM. Moreover, the “α5-GABAAR Relative Efficacy” value in test [2] (Conc 3 μM) is −0.40.
Take `COc1nc(-c2ccc(NC(C)=O)nc2)ccc1NC(=O)c1c(-c2ccccc2)noc1C` [Example 108, N-(6′-Acetamido-6-methoxy-[2,3′-bipyridin]-5-yl)-5-methyl-3-phenylisoxazole-4-carboxamide]: the Ki in test [1] worked out at 3.1 nM. Besides, the “α5-GABAAR Relative Efficacy” value in test [2] (Conc 1 μM) is −0.81.
As to `COc1nc(-c2cnn(-c3ccncc3)c2)ccc1NC(=O)c1c(-c2ccccc2)noc1C` [Example 110, N-(2-Methoxy-6-(1-(pyridin-4-yl)-1H-pyrazol-4-yl)pyridin-3-yl)-5-methyl-3-phenylisoxazole-4-carboxamide], the inhibitory constant (Ki) in test [1] came to 29.1 nM. The “α5-GABAAR Relative Efficacy” value in test [2] (Conc 3 μM) is reported as −0.53.
As for `COc1nc(-c2ccc3c(c2)nc(C)n3C)ccc1NC(=O)c1c(-c2ccccc2)noc1C` [Example 111, N-(6-(1,2-Dimethyl-1H-benzo[d]imidazol-5-yl)-2-methoxypyridin-3-yl)-5-methyl-3-phenylisoxazole-4-carboxamide], the Ki in test [1] came to 13.1 nM. Moreover, the “α5-GABAAR Relative Efficacy” value in test [2] (Conc 3 μM) is reported as −0.46.
The matching figures for `COc1nc(-c2ccc3c(c2)COC(=O)N3)ccc1NC(=O)c1c(-c2ccccc2)noc1C` [Example 119, N-(2-Methoxy-6-(2-oxo-1,4-dihydro-2H-benzo[d] [1,3]oxazin-6-yl)pyridin-3-yl)-5-methyl-3-phenylisoxazole-4-carboxamide]: 13.8 nM and −0.63.
With `COc1nc(-c2cnoc2)cnc1NC(=O)c1c(-c2ccccc2)noc1C` [Example 120, N-(5-Isoxazol-4-yl-3-methoxy-pyrazin-2-yl)-5-methyl-3-phenyl-isoxazole-4-carboxamide], the Ki in test [1] was 4.6 nM. The “α5-GABAAR Relative Efficacy” value in test [2] (Conc 1 μM) was −0.73.
As for `COc1nc(-c2ncc[nH]2)ccc1NC(=O)c1c(-c2ccccc2)noc1C` [Example 121, N-[6-(1H-Imidazol-2-yl)-2-methoxy-3-pyridyl]-5-methyl-3-phenyl-isoxazole-4-carboxamide], the Ki in test [1] amounted to 2.1 nM. In addition, the “α5-GABAAR Relative Efficacy” value in test [2] (Conc 0.3 μM) is −0.36.
As for `COc1nc(-c2ncco2)ccc1NC(=O)c1c(-c2ccccc2)noc1C` [Example 123, N-(2-Methoxy-6-oxazol-2-yl-3-pyridyl)-5-methyl-3-phenyl-isoxazole-4-carboxamide], in test [1], the Ki was found to be 11.8 nM. Further, the “α5-GABAAR Relative Efficacy” value in test [2] (Conc 3 μM) is on record as −0.48.
The matching figures for `COc1nc(-c2cnoc2)ccc1NC(=O)c1c(C)nnn1-c1ccccc1` [Example 124, N-(6-(Isoxazol-4-yl)-2-methoxypyridin-3-yl)-4-methyl-1-phenyl-1H-1,2,3-triazole-5-carboxamide]: 23.6 nM and −1.40.

As usually defined, the Ki is a measure of affinity in units of concentration, obtained from inhibition or displacement.

Values taken from US20240425491A1, “HETEROARYL COMPOUNDS USEFUL IN THE TREATMENT OF COGNITIVE DISORDERS” (University College Cardiff Consultants Limited, priority 2021, published 2024).
